One test relates to rat cortical neurons. Nature of the test: Evoked and spontaneous action potential activity of cultured rat cortical neurons, current-clamp. The class given is cell-based. As to conditions: 10 μM.
In test [1] the test system is hippocampal pyramidal neurons. Nature of the test: Spontaneous EPSCs of hippocampal pyramidal neuron cultures, voltage-clamp. Format: cell-based. The settings on record: 10 μM. On the procedure: To further determine the synaptic site of M-channel activation by Compound 6, its effects on spontaneous excitatory postsynaptic currents (EPSCs) that could be recorded from dense networks of hippocampal pyramidal neuron cultures was tested.
In FIGS. 30B and 30C, burst activity before (control), in the presence (Compound 6) and after (Wash) application of 5 μM (FIG. 30B) and 10 μM (FIG. 30C) Compound 6, as recorded at the voltage clamp mode is shown. In FIG. 30D, burst activity before (control) and in the presence of 25 μM Linopirdine is shown. In FIG. 30E, the normalized number of bursts appeared in 180 seconds time period for 5 μM (left panel), 10 μM (mid panel) of Compound 6 and 25 μM linopirdine (right panel) are shown. The holding potential was −70 mV. n=5-6.
Thus, using the voltage-clamp configuration of the patch-clamp technique, spontaneous EPSCs were isolated at −70 mV (holding potential) in the presence of 10 μM bicuculline and 10 μM picrotoxin to block GABAA receptor-mediated inhibitory postsynaptic currents. As is shown in FIG. 30A, under control conditions, the frequency of EPSCs is variable depending of the density of the hippocampal culture, ranging from 0.4 Hz to 2 Hz. […] However, the majority of the EPSCs measured at −70 mV under the experimental recording conditions are mediated by AMPA receptors as most of the currents are blocked by 10 μM NBQX, leaving only a small fraction EPSC sensitive to the NMDA receptor blocker DL-AP5 (FIG. 30A).

Turning to `O=C1N(c2ccccc2)c2ccccc2C1(Cc1ccncc1)Cc1ccncc1` [linopirdine], the “effect on spontaneous spiking activity” value in the test on rat cortical neurons is recorded as “significantly enhanced the frequency of spontaneous spiking”. Also, the “frequency of EPSCs” value in test [1] is reported as “up to 278±41 % of control”.

Values taken from patent US8618169B2, “Derivatives of N-phenylanthranilic acid and 2-benzimidazolone as potassium channel and/or neuron activity modulators” (Ramot at Tel-Aviv University Ltd., priority 2002, dated 2013).
